In ChEMBL document CHEMBL5724914, “Linking interpersonal differences in gut microbiota composition and drug biotransformation activity” (2024):

Tests used:
[1] = The drug is tested on Z-027 corresponding to metagenome with ENA study accession number: PRJEB37062 and ENA sample accession number: ERS12561826 for biotransformation under anaerobic condition. The drug concentrations were measured over 9 timepoints collected between 0 and 24 hours of incubation by liquid-chromatography-coupled mass spectrometry (LC–MS); conditions: 2 µM
[2] = The drug is tested on Z-023 corresponding to metagenome with ENA study accession number: PRJEB37062 and ENA sample accession number: ERS12561822 for biotransformation under anaerobic condition. The drug concentrations were measured over 9 timepoints collected between 0 and 24 hours of incubation by liquid-chromatography-coupled mass spectrometry (LC–MS); conditions: 2 µM
[3] = The drug is tested on Z-020 corresponding to rabbit gut metagenome with ENA study accession number: PRJEB37062 and ENA sample accession number: ERS12561819 for biotransformation under anaerobic condition. The drug concentrations were measured over 9 timepoints collected between 0 and 24 hours of incubation by liquid-chromatography-coupled mass spectrometry (LC–MS); conditions: 2 µM
[4] = The drug is tested on Z-019 corresponding to rat gut metagenome with ENA study accession number: PRJEB37062 and ENA sample accession number: ERS12561818 for biotransformation under anaerobic condition. The drug concentrations were measured over 9 timepoints collected between 0 and 24 hours of incubation by liquid-chromatography-coupled mass spectrometry (LC–MS); conditions: 2 µM
[5] = The drug is tested on Z-014 corresponding to rat gut metagenome with ENA study accession number: PRJEB37062 and ENA sample accession number: ERS12561814 for biotransformation under anaerobic condition. The drug concentrations were measured over 9 timepoints collected between 0 and 24 hours of incubation by liquid-chromatography-coupled mass spectrometry (LC–MS); conditions: 2 µM
[6] = The drug is tested on Z-010 corresponding to metagenome with ENA study accession number: PRJEB37062 and ENA sample accession number: ERS12561810 for biotransformation under anaerobic condition. The drug concentrations were measured over 9 timepoints collected between 0 and 24 hours of incubation by liquid-chromatography-coupled mass spectrometry (LC–MS); conditions: 2 µM
[7] = The drug is tested on Z-008 corresponding to metagenome with ENA study accession number: PRJEB37062 and ENA sample accession number: ERS12561808 for biotransformation under anaerobic condition. The drug concentrations were measured over 9 timepoints collected between 0 and 24 hours of incubation by liquid-chromatography-coupled mass spectrometry (LC–MS); conditions: 2 µM
[8] = The drug is tested on Z-003 corresponding to pig gut metagenome with ENA study accession number: PRJEB37062 and ENA sample accession number: ERS12561803 for biotransformation under anaerobic condition. The drug concentrations were measured over 9 timepoints collected between 0 and 24 hours of incubation by liquid-chromatography-coupled mass spectrometry (LC–MS); conditions: 2 µM
[9] = The drug is tested on Z-002 corresponding to rabbit gut metagenome with ENA study accession number: PRJEB37062 and ENA sample accession number: ERS12561802 for biotransformation under anaerobic condition. The drug concentrations were measured over 9 timepoints collected between 0 and 24 hours of incubation by liquid-chromatography-coupled mass spectrometry (LC–MS); conditions: 2 µM
[10] = The drug is tested on WLS-086 corresponding to human gut metagenome with ENA study accession number: PRJEB37062 and ENA sample accession number: ERS12561752 for biotransformation under anaerobic condition. The drug concentrations were measured over 9 timepoints collected between 0 and 24 hours of incubation by liquid-chromatography-coupled mass spectrometry (LC–MS); conditions: 2 µM
[11] = The drug is tested on WLS-069 corresponding to human gut metagenome with ENA study accession number: PRJEB37062 and ENA sample accession number: ERS12561748 for biotransformation under anaerobic condition. The drug concentrations were measured over 9 timepoints collected between 0 and 24 hours of incubation by liquid-chromatography-coupled mass spectrometry (LC–MS); conditions: 2 µM
[12] = The drug is tested on WLS-052 corresponding to human gut metagenome with ENA study accession number: PRJEB37062 and ENA sample accession number: ERS12561747 for biotransformation under anaerobic condition. The drug concentrations were measured over 9 timepoints collected between 0 and 24 hours of incubation by liquid-chromatography-coupled mass spectrometry (LC–MS); conditions: 2 µM
[13] = The drug is tested on WLS-007 corresponding to human gut metagenome with ENA study accession number: PRJEB37062 and ENA sample accession number: ERS12561742 for biotransformation under anaerobic condition. The drug concentrations were measured over 9 timepoints collected between 0 and 24 hours of incubation by liquid-chromatography-coupled mass spectrometry (LC–MS); conditions: 2 µM
[14] = human gut metagenome, 24 h, 2 µM
[15] = human gut metagenome, 24 h, 2 µM; remark: listed apart in the source
[16] = human gut metagenome, 24 h, 2 µM; remark: listed apart in the source
[17] = human gut metagenome, 24 h, 2 µM; remark: listed apart in the source
[18] = human gut metagenome, 24 h, 2 µM; remark: listed apart in the source
[19] = human gut metagenome, 24 h, 2 µM; remark: listed apart in the source
[20] = human gut metagenome, 24 h, 2 µM; remark: listed apart in the source
Further: call rule not given here.

| SMILES | Bacterial Biotransformation [1] | Bacterial Biotransformation [2] | Bacterial Biotransformation [3] | Bacterial Biotransformation [4] | Bacterial Biotransformation [5] | Bacterial Biotransformation [6] | Bacterial Biotransformation [7] | Bacterial Biotransformation [8] | Bacterial Biotransformation [9] | Bacterial Biotransformation [10] | Bacterial Biotransformation [11] | Bacterial Biotransformation [12] | Bacterial Biotransformation [13] | Bacterial Biotransformation [14] | Bacterial Biotransformation [15] | Bacterial Biotransformation [16] | Bacterial Biotransformation [17] | Bacterial Biotransformation [18] | Bacterial Biotransformation [19] | Bacterial Biotransformation [20] |
| --- | --- | --- | --- | --- | --- | --- | --- | --- | --- | --- | --- | --- | --- | --- | --- | --- | --- | --- | --- | --- |
| O=C(O)CCC(=O)O.O=C(O[C@H]1CN2CCC1CC2)N1CCc2ccccc2[C@@H]1c1ccccc1 [SOLIFENACIN SUCCINATE] | Compound NOT metabolized | Compound metabolized | Compound metabolized | Compound NOT metabolized | Compound NOT metabolized | Compound metabolized | Compound NOT metabolized | Compound metabolized | Compound metabolized | Compound metabolized | Compound metabolized | Compound NOT metabolized | Compound metabolized | Compound NOT metabolized | Compound NOT metabolized | Compound metabolized | Compound metabolized | Compound metabolized | Compound metabolized | Compound metabolized |
| CC(C)[C@H]1CC[C@H](C(=O)N[C@H](Cc2ccccc2)C(=O)O)CC1 [NATEGLINIDE] | Compound metabolized | Compound metabolized | Compound metabolized | Compound NOT metabolized | Compound NOT metabolized | Compound metabolized | Compound NOT metabolized | Compound metabolized | Compound metabolized | Compound metabolized | Compound metabolized | Compound metabolized | Compound metabolized | Compound metabolized | Compound metabolized | Compound metabolized | Compound metabolized | Compound metabolized | Compound metabolized | Compound metabolized |
| CCN(C)C(=O)Oc1cccc([C@H](C)N(C)C)c1.O=C(O)C(O)C(O)C(=O)O [RIVASTIGMINE TARTRATE] | Compound NOT metabolized | Compound NOT metabolized | Compound NOT metabolized | Compound NOT metabolized | Compound NOT metabolized | Compound NOT metabolized | Compound NOT metabolized | Compound NOT metabolized | Compound NOT metabolized | Compound NOT metabolized | Compound NOT metabolized | Compound metabolized | Compound NOT metabolized | Compound NOT metabolized | Compound NOT metabolized | Compound NOT metabolized | Compound NOT metabolized | Compound NOT metabolized | Compound NOT metabolized | Compound NOT metabolized |
| Nc1nc(NC2CC2)c2ncn([C@H]3C=C[C@@H](CO)C3)c2n1.Nc1nc(NC2CC2)c2ncn([C@H]3C=C[C@@H](CO)C3)c2n1.O=S(=O)(O)O [ABACAVIR SULFATE] | Compound NOT metabolized | Compound NOT metabolized | Compound NOT metabolized | Compound NOT metabolized | Compound NOT metabolized | Compound metabolized | Compound NOT metabolized | Compound NOT metabolized | Compound metabolized | Compound metabolized | Compound metabolized | Compound NOT metabolized | Compound NOT metabolized | Compound NOT metabolized | Compound NOT metabolized | Compound metabolized | Compound metabolized | Compound metabolized | Compound metabolized | Compound metabolized |
| CC(NC(C)(C)C)C(=O)c1cccc(Cl)c1 (stereo not given) [BUPROPION] | Compound NOT metabolized | Compound NOT metabolized | Compound NOT metabolized | Compound NOT metabolized | Compound NOT metabolized | Compound NOT metabolized | Compound NOT metabolized | Compound NOT metabolized | Compound NOT metabolized | Compound NOT metabolized | Compound NOT metabolized | Compound NOT metabolized | Compound NOT metabolized | Compound NOT metabolized | Compound NOT metabolized | Compound NOT metabolized | Compound NOT metabolized | Compound NOT metabolized | Compound metabolized | Compound NOT metabolized |
